Measurements published in patent US20030050307A1, “Novel indole derivatives” (H. Lundbeck A/S, priority 1999, published 2003).
Where a name gives a salt, the structure may show the parent alone.

Assays:
[1] = molecular target: T1, human cloned dopamine D4.2-receptors (Homo sapiens, UniProt P21917, DEL265-296); assay: Inhibition of the binding of 3H-YM-09151-2 to human dopamine D4 receptors; conditions: [3H]YM-09151-2 0.06 nM
T1 construct: expressed in transfected cells; host or cells: CHO cells
T1 sequence (P21917 with tags, fused parts or gaps DEL265-296): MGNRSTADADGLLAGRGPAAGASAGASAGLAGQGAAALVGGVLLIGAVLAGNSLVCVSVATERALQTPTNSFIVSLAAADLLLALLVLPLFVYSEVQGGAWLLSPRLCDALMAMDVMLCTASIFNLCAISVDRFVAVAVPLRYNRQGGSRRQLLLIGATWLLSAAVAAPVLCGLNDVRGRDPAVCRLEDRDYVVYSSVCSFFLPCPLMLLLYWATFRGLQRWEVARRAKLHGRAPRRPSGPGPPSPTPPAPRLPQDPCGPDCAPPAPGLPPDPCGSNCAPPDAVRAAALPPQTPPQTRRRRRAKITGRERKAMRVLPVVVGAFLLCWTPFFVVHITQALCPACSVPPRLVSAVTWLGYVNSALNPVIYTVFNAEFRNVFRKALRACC
Protocol: Inhibition of the Binding of ^3H-YM-09151-2 to Human Dopamine D4 Receptors
By this method, the inhibition by drugs of the binding of [^3H]YM-09151-2 (0.06 nM) to membranes of human cloned dopamine D4.2-receptors expressed in CHO-cells is determined in vitro. Method modified from NEN Life Science Products, Inc., technical data certificate PC2533-10/96.

[2] = molecular target: T2, cloned human 5-HT1A-receptors (Homo sapiens, UniProt P08908); assay: Inhibition of 3H-5-CT binding to human 5-HT1A receptors; conditions: transfected HeLa cells (HA7), 15 minutes at 37° C., pH 7.7
T2 construct: expressed in transfected cells; host or cells: HeLa cells (HA7)
T2 sequence (P08908 1-422): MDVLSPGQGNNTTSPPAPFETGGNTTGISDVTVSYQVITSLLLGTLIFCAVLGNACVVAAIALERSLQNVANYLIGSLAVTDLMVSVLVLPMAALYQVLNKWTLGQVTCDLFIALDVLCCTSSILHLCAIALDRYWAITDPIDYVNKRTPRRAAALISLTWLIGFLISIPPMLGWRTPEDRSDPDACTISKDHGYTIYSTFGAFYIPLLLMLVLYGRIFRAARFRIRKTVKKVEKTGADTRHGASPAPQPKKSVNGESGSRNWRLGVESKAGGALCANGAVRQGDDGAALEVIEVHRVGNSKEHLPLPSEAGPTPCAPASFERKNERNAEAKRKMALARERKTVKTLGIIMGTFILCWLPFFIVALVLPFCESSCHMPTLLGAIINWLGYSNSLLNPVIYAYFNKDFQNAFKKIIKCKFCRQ
Protocol: The affinity of the compounds of the invention to 5-HT1A receptors was determined by measuring the inhibition of binding of a radioactive ligand at 5-HT1A-receptors as described in the following test:
Inhibition of ^3H-5-CT Binding to Human 5-HT1A Receptors.
By this method, the inhibition by drugs of the binding of the 5-HT1A-agonist ^3H-5-carboxamido tryptamine (^3H-5-CT) to cloned human 5-HT1A-receptors stably expressed in transfected HeLa cells (HA7) (Fargin, A. et al. J. Biol. Chem. 1989, 264, 14848) is determined in vitro. The assay was performed as a modification of the method described by Harrington, M. A. et al. J. Pharmacol. Exp. Ther. 1994, 268, 1098. Human 5-HT1A-receptors (40 μg of cell homogenate) were incubated for 15 minutes at 37° C. in 50 mM Tris buffer at pH 7.7 in the presence of ^3H-5-CT. Non-specific binding was determined by including 10 μM of metergoline. The reaction was terminated by rapid filtration through Unifilter GF/B filters on a Tomtec Cell Harvester. Filters were counted in a Packard Top Counter.

[3] = at 100 nM, CHO-cell membranes, human D4.2

inhibition at 0.1 µM [1, 3] [%] | inhibition at 0.05 µM ([2]; at 50 nM) [%] | SMILES | also measured
– | – | Brc1ccccc1SCCCN1CCN(c2cccc3[nH]ccc23)CC1 (as salt: oxalate) [Compound 2b, 4-(4-[3-(2-Bromo-phenylsulfanyl)-propyl]-piperazin-1-yl}-1H-indole] | melting point: 163 to 166 °C
– | – | Brc1ccccc1OCCCN1CCN(c2cccc3[nH]ccc23)CC1 (as salt: oxalate) [Compound 2c, 4-{4-[3-(2-Bromo-phenoxy)-propyl]-piperazin-1-yl}-1H-indole] | melting point: 206 to 208 °C
– | – | Fc1ccc(OCCCCN2CCN(c3cccc4[nH]ccc34)CC2)c(Br)c1 (as salt: oxalate) [Compound 2d, 4-{4-[4-(2-Bromo-4-fluoro-phenoxy)-butyl]-piperazin-1-yl}-1H-indole] | melting point: 218 to 220 °C
– | – | Cc1cccc(Cl)c1SCCCCN1CCN(c2cccc3[nH]ccc23)CC1 (as salt: oxalate) [Compound 2e, 4-{4-[4-(2-Chloro-6-methyl-phenylsulfanyl)-butyl]-piperazin-1-yl}-1H-indole] | melting point: 199 to 210 °C
– | – | Clc1cccc(Cl)c1SCCN1CCN(c2cccc3[nH]ccc23)CC1 (as salt: oxalate) [Compound 3b, 4-(4-[2-(2,6-Dichloro-phenylsulfanyl)-ethyl]-piperazin-1-yl)-1H-indole] | melting point: 130 to 133 °C (dec.)
– | – | Clc1ccc(SCCN2CCN(c3cccc4[nH]ccc34)CC2)cc1Cl (as salt: oxalate) [Compound 3c, 4-{4-[2-(3,4-Dichloro-phenylsulfanyl)-ethyl]-piperazin-1-yl}-1H-indole] | melting point: 140 to 141 °C
– | – | Clc1ccccc1OCCCN1CCN(c2cccc3[nH]ccc23)CC1 [Compound 1, 4-{4-[3-(2-Chloro-phenoxy)-propyl]-piperazin-1-yl}-1H-indole] | IC50 ([1]; membranes of CHO-cells expressing human D4.2): 0.092 µM; IC50 [2]: 0.012 µM; melting point: 189 to 199 °C
100 | 77 | c1ccc(SCCCCN2CCN(c3cccc4[nH]ccc34)CC2)cc1 [Compound 5aj, 4-[4-(4-Phenylsulfanyl-butyl)-piperazin-1-yl]-1H-indole] | –
93 | 91 | Cc1ccc(Cl)c(OCCCCN2CCN(c3cccc4[nH]ccc34)CC2)c1 [Compound 5ak, 4-{4-[4-(2-Chloro-5-methyl-phenoxy)-butyl]-piperazin-1-yl}-1H-indole] | –
96 | 92 | Clc1ccc(Cl)c(SCCN2CCN(c3cccc4[nH]ccc34)CC2)c1 [Compound 5al, 4-{4-[2-(2,5-Dichloro-phenylsulfanyl)-ethyl]-piperazin-1-yl}-1H-indole] | –
83 | 93 | Clc1cccc(SCCN2CCN(c3cccc4[nH]ccc34)CC2)c1 [Compound 5am, 4-{4-[2-(3-Chloro-phenylsulfanyl)-ethyl]-piperazin-1-yl}-1H-indole] | –
83 | 91 | Clc1ccccc1SCCN1CCN(c2cccc3[nH]ccc23)CC1 [Compound 5an, 4-{4-[2-(2-Chloro-phenylsulfanyl)-ethyl]-piperazin-1-yl}-1H-indole] | –
102 | 100 | Clc1cccc(SCCCN2CCN(c3cccc4[nH]ccc34)CC2)c1 [Compound 5ao, 4-{4-[3-(3-Chloro-phenylsulfanyl)-propyl]-piperazin-1-yl}-1H-indole] | –
– | – | N#Cc1ccc(OCCCCN2CCN(c3cccc4[nH]ccc34)CC2)c(Cl)c1 [Compound 5ap] | Inhibition of 3H-YM-09151 binding % inhibition at 100 nM [1, 3]: 106%; Inhibition of 3H-5-CT Binding % inhibition at 50 nM ([2]; at 50 nM): 100%
98 | 100 | Clc1cccc(SCCCCN2CCN(c3cccc4[nH]ccc34)CC2)c1 [Compound 5aq, 4-{4-[4-(3-Chloro-phenylsulfanyl)-butyl]-piperazin-1-yl}-1H-indole] | –
98 | 104 | Clc1ccccc1SCCCCN1CCN(c2cccc3[nH]ccc23)CC1 [Compound 5ar, 4-{4-[4-(2-Chloro-phenylsulfanyl)-butyl]-piperazin-1-yl}-1H-indole] | –
99 | 103 | Cc1ccc(SCCCN2CCN(c3cccc4[nH]ccc34)CC2)cc1C [Compound 5as, 4-{4-[3-(3,4-Dimethyl-phenylsulfanyl)-propyl]-piperazin-1-yl}-1H-indole] | –
97 | 99 | Clc1ccc(Cl)c(OCCCCN2CCN(c3cccc4[nH]ccc34)CC2)c1 [Compound 5au, 4-{4-[4-(2,5-Dichloro-phenoxy)-butyl]-piperazin-1-yl}-1H-indole] | –
107 | 69 | COc1ccc(SCCCCN2CCN(c3cccc4[nH]ccc34)CC2)cc1OC [Compound 5av, 4-{4-[4-(3,4-Dimethoxy-phenylsulfanyl)-butyl]-piperazin-1-yl}-1H-indole] | –
99 | 98 | FC(F)(F)c1ccc(SCCCN2CCN(c3cccc4[nH]ccc34)CC2)cc1 [Compound 5aw, 4-{4-[3-(4-Trifluoromethyl-phenylsulfanyl)-propyl]-piperazin-1-yl}-1H-indole] | –
98 | 81 | FC(F)(F)Oc1ccc(SCCCN2CCN(c3cccc4[nH]ccc34)CC2)cc1 [Compound 5ax, 4-{4-[3-(4-Trifluoromethoxy-phenylsulfanyl)-propyl]-piperazin-1-yl}-1H-indole] | –
105 | 96 | Brc1cccc(SCCCN2CCN(c3cccc4[nH]ccc34)CC2)c1 [Compound 5ay, 4-{4-[3-(3-Bromo-phenylsulfanyl)-propyl]-piperazin-1-yl}-1H-indole] | –
94 | 98 | CC(C)c1ccccc1SCCCN1CCN(c2cccc3[nH]ccc23)CC1 [Compound 5az, 4-{4-[3-(2-Isopropyl-phenylsulfanyl)-propyl]-piperazin-1-yl}-1H-indole] | –
80 | 83 | COc1ccccc1OCCCCN1CCN(c2cccc3[nH]ccc23)CC1 [Compound 5ba, 4-{4-[4-(2-Methoxy-phenoxy)-butyl]-piperazin-1-yl}-1H-indole] | –
94 | 94 | CC(C)c1ccccc1SCCCCN1CCN(c2cccc3[nH]ccc23)CC1 [Compound 5bb, 4-{4-[4-(2-Isopropyl-phenylsulfanyl)-butyl]-piperazin-1-yl}-1H-indole] | –

SMILES | inhibition at 0.1 µM [1, 3] [%] | inhibition at 0.05 µM ([2]; at 50 nM) [%] | also measured
N#Cc1cccc(OCCCCN2CCN(c3cccc4[nH]ccc34)CC2)c1 [Compound 5at, 3-{4-[4-(1H-Indol-4-yl)-piperazin-1-yl]-butoxy}-benzonitrile] | 95 | 92 | –
